What is called IC50 is the point on the concentration scale where inhibition reaches its midpoint.

The experiment deals with T1, Human Factor XIIa (Homo sapiens, UniProt P00748).
T1 construct: Proteolytic cleavage of FXII to heavy and light chains of FXIIa dramatically increases catalytic activity; purchased Enzyme Research Laboratories
T1 sequence (P00748 373-615 limits assumed): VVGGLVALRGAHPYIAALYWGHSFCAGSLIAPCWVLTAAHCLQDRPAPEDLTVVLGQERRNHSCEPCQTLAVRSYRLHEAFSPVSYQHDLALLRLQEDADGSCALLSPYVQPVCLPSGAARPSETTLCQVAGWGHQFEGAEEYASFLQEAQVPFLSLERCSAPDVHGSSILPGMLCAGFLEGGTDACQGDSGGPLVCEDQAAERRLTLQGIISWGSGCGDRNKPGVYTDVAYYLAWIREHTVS
T1 sequence (P00748 20-372 partner limits assumed): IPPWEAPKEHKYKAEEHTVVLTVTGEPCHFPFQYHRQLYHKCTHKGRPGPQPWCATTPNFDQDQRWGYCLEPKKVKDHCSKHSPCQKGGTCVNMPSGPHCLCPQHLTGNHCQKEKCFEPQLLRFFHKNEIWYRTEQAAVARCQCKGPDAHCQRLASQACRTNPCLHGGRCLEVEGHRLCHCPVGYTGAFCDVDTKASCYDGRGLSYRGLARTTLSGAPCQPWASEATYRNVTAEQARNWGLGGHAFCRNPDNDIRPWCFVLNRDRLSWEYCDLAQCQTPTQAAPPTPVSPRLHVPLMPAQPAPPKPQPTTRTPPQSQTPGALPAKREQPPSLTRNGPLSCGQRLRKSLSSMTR
As to the kind of experiment: Determination of FXIIa inhibition (fluorogenic substrate H-DPro-Phe-Arg-AFC, IC50 assay). In kind it is biochemical. Conditions: substrate at Km concentration, 25° C.; category scale; read-out: Human FXII IC50 (nm). The essentials: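 At substrate Km and 25° C., the rate of AFC release from H-DPro-Phe-Arg-AFC by human Factor XIIa was followed for 5 min across compound concentrations. Inhibition was derived as percent of uninhibited rate, giving IC50.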
Take `Cc1cnc2ccc(OCC34COC(CNc5ccnc(N)c5)(C3)C4)cn12` [Example 6660, N4-((4-(((3-methylimidazo[1,2-a]pyridin-6-yl)oxy)methyl)-2-oxabicyclo[2.1.1]hexan-1-yl)methyl)pyridine-2,4-diamine]: the IC50 is 3 to 10 µM.
In the case of `Cn1ccc(OCC23CN(C(=O)NCc4ccccc4F)C(CNc4cccc5c(N)nccc45)(C2)C3)cc1=O` [Example 12058, 1-(((1-aminoisoquinolin-5-yl)amino)methyl)-N-(2-fluorobenzyl)-4-(((1-methyl-2-oxo-1,2-dihydropyridin-4-yl)oxy)methyl)-2-azabicyclo[2.1.1]hexane-2-carboxamide] it was 0.01 to 0.1 µM.
In the case of `Cn1cc(Cl)c(OCC23CCOC(CNc4cccc5c(N)nccc45)(C2)C3)cc1=O` [Example 10933, 4-((1-(((1-aminoisoquinolin-5-yl)amino)methyl)-2-oxabicyclo[3.1.1]heptan-5-yl)methoxy)-5-chloro-1-methylpyridin-2(1H)-one] it was 1 to 3 µM.
In the case of `COc1ccc(NC(=O)N2CC3(COc4ccn(C)c(=O)c4)CC2(CNc2cccc4c(N)nccc24)C3)cc1` [Example 12061, 1-(((1-Aminoisoquinolin-5-yl)amino)methyl)-N-(4-methoxyphenyl)-4-(((1-methyl-2-oxo-1,2-dihydropyridin-4-yl)oxy)methyl)-2-azabicyclo[2.1.1]hexane-2-carboxamide] it was 0.001 to 0.01 µM.
Regarding `CC1(C)OC2(COc3cccc4c(N)nccc34)CC1(COc1ccn3ccnc3c1)C2` [Example 7702, 5-((4-((imidazo[1,2-a]pyridin-7-yloxy)methyl)-3,3-dimethyl-2-oxabicyclo[2.1.1]hexan-1-yl)methoxy)isoquinolin-1-amine], the IC50 was in the range of 0.3 to 1 µM.
Turning to `COC(=O)N1CC2(COc3ccn(C)c(=O)c3)CC1(CNc1ccc3c(N)nccc3c1)C2` [Example 12013, methyl 1-(((1-aminoisoquinolin-6-yl)amino)methyl)-4-(((1-methyl-2-oxo-1,2-dihydropyridin-4-yl)oxy)methyl)-2-azabicyclo[2.1.1]hexane-2-carboxylate], the IC50 lay in the range of 0.3 to 1 µM.
In the case of `CN1Cc2cc(OCC34CN(C(=O)OCc5ccccc5)C(CNc5cccc6c(N)nccc56)(C3)C4)ccc2C1=O` [Example 12018, benzyl 1-(((1-aminoisoquinolin-5-yl)amino)methyl)-4-(((2-methyl-1-oxoisoindolin-5-yl)oxy)methyl)-2-azabicyclo[2.1.1]hexane-2-carboxylate] it was 0.01 to 0.1 µM; in that of `COc1ccccc1CNC(=O)N1CC2(COc3ccn(C)c(=O)c3)CC1(CNc1cccc3c(N)nccc13)C2` [Example 12067, 1-(((1-aminoisoquinolin-5-yl)amino)methyl)-N-(2-methoxybenzyl)-4-(((1-methyl-2-oxo-1,2-dihydropyridin-4-yl)oxy)methyl)-2-azabicyclo[2.1.1]hexane-2-carboxamide], 0.01 to 0.1 µM.
For the compound `Nc1nccc2c(NCC34CC(COc5ccc6nncn6n5)(CO3)C4)cccc12` [Example 6638, N5-((4-(([1,2,4]triazolo[4,3-b]pyridazin-6-yloxy)methyl)-2-oxabicyclo[2.1.1]hexan-1-yl)methyl)isoquinoline-1,5-diamine], the IC50 was in the range of 1 to 3 µM.
In the case of `CN(Cc1ccccc1)C(=O)N1CC2(COc3ccn(C)c(=O)c3)CC1(CNc1cccc3c(N)nccc13)C2` [Example 12041, 1-[[(1-Amino-5-isoquinolyl)amino]methyl]-N-benzyl-N-methyl-4-[(1-methyl-2-oxo-4-pyridyl)oxymethyl]-2-azabicyclo[2.1.1]hexane-2-carboxamide] it was 0.001 to 0.01 µM.
In the case of `Cn1ccc(OCC23CN(C(=O)CCc4cccc(C(F)F)c4)C(CNc4cccc5c(N)nccc45)(C2)C3)cc1=O` [Example 12048, 4-((1-(((1-aminoisoquinolin-5-yl)amino)methyl)-2-(3-(3-(difluoromethyl)phenyl)propanoyl)-2-azabicyclo[2.1.1]hexan-4-yl)methoxy)-1-methylpyridin-2(1H)-one] it was 0.01 to 0.1 µM; in that of `Nc1nccc2c(NCC34CC(COc5cc6n(c(=O)c5)CCC6)(CCO3)C4)cccc12` [Example 10972, 7-((1-(((1-aminoisoquinolin-5-yl)amino)methyl)-2-oxabicyclo[3.1.1]heptan-5-yl)methoxy)-2,3-dihydroindolizin-5(1H)-one], 0.01 to 0.1 µM; in that of `Cn1ccc(OCC23CN(c4cccnc4)C(CNc4cccc5c(N)nccc45)(C2)C3)cc1=O` [Example 12064, 4-((1-(((1-aminoisoquinolin-5-yl)amino)methyl)-2-(pyridin-3-yl)-2-azabicyclo[2.1.1]hexan-4-yl)methoxy)-1-methylpyridin-2(1H)-one], 0.01 to 0.1 µM.
In the case of `Nc1nccc2c(NCC34CC(COc5ccc6ncoc6c5)(CCO3)C4)cccc12` [Example 10973, N5-((5-((benzo[d]oxazol-6-yloxy)methyl)-2-oxabicyclo[3.1.1]heptan-1-yl)methyl)isoquinoline-1,5-diamine] it was 1 to 3 µM; in that of `Cc1cnc2ccc(OCC34COC(CNc5cccnc5)(C3)C4)cn12` [Example 6661, N-((4-(((3-methylimidazo[1,2-a]pyridin-6-yl)oxy)methyl)-2-oxabicyclo[2.1.1]hexan-1-yl)methyl)pyridin-3-amine], 10 to 40 µM; in that of `Cn1ccc(OCC23CC(CNc4cccc5c(N)nccc45)(CN2CCCc2ccccc2)C3)cc1=O` [Example 13015, 4-((4-(((1-aminoisoquinolin-5-yl)amino)methyl)-2-(3-phenylpropyl)-2-azabicyclo[2.1.1]hexan-1-yl)methoxy)-1-methylpyridin-2(1H)-one], 0.1 to 0.3 µM.
As to `Nc1nccc2c(NCC34CC(COc5cc(C(F)(F)F)c6nccn6c5)(CO3)C4)cccc12` [Example 6630, N5-((4-(((8-(trifluoromethyl)imidazo[1,2-a]pyridin-6-yl)oxy)methyl)-2-oxabicyclo[2.1.1]hexan-1-yl)methyl)isoquinoline-1,5-diamine], the IC50 fell in the range of 0.1 to 0.3 µM.
With `CC1(C)NC(=O)c2ccc(OCC34COC(CNc5cccc6c(N)nccc56)(C3)C4)cc21` [Example 6650, 5-((1-(((1-aminoisoquinolin-5-yl)amino)methyl)-2-oxabicyclo[2.1.1]hexan-4-yl)methoxy)-3,3-dimethylisoindolin-1-one], the IC50 was in the range of 0.1 to 0.3 µM.
`CN1CCc2cc(OCC34CCOC(CNc5cccc6c(N)nccc56)(C3)C4)ccc2C1=O` [Example 10939, 6-((1-(((1-aminoisoquinolin-5-yl)amino)methyl)-2-oxabicyclo[3.1.1]heptan-5-yl)methoxy)-2-methyl-3,4-dihydroisoquinolin-1(2H)-one]: the IC50 was 0.3 to 1 µM.
The result for `Cn1ccc(OCC23CN(C(=O)OC(C)(C)C)C(CNc4cccc5c(N)nccc45)(C2)C3)cc1=O` [Example 12027, tert-butyl 1-(((1-aminoisoquinolin-5-yl)amino)methyl)-4-(((1-methyl-2-oxo-1,2-dihydropyridin-4-yl)oxy)methyl)-2-azabicyclo[2.1.1]hexane-2-carboxylate] reads 0.1 to 0.3 µM.
The result for `Cn1ccc(OCC23CN(C(=O)Cc4ccccc4)C(CNc4cccc5c(N)nccc45)(C2)C3)cc1=O` [Example 12028, 4-((1-(((1-aminoisoquinolin-5-yl)amino)methyl)-2-(2-phenylacetyl)-2-azabicyclo[2.1.1]hexan-4-yl)methoxy)-1-methylpyridin-2(1H)-one] reads 0.01 to 0.1 µM; that for `Cn1nncc1OCC12CCOC(CNc3cccc4c(N)nccc34)(C1)C2` [Example 10946, N5-((5-(((1-methyl-1H-1,2,3-triazol-5-yl)oxy)methyl)-2-oxabicyclo[3.1.1]heptan-1-yl)methyl)isoquinoline-1,5-diamine], 3 to 10 µM; that for `Nc1nccc2c(NCC34CC(COc5ccnnc5)(CCO3)C4)cccc12` [Example 10963, N5-((5-((pyridazin-4-yloxy)methyl)-2-oxabicyclo[3.1.1]heptan-1-yl)methyl)isoquinoline-1,5-diamine], 3 to 10 µM.
Turning to `Cn1ccc(OCC23CN(C(=O)CCc4cccc(C(F)(F)F)c4)C(CNc4cccc5c(N)nccc45)(C2)C3)cc1=O` [Example 12050, 4-((1-(((1-aminoisoquinolin-5-yl)amino)methyl)-2-(3-(3-(trifluoromethyl)phenyl)propanoyl)-2-azabicyclo[2.1.1]hexan-4-yl)methoxy)-1-methylpyridin-2(1H)-one], the IC50 was in the range of 0.01 to 0.1 µM.
In the case of `Nc1nccc2c(NCC34CC(COc5ccn6c(C(F)(F)F)nnc6c5)(CCO3)C4)cccc12` [Example 10961, N5-((5-(((3-(trifluoromethyl)-[1,2,4]triazolo[4,3-a]pyridin-7-yl)oxy)methyl)-2-oxabicyclo[3.1.1]heptan-1-yl)methyl)isoquinoline-1,5-diamine], the half-maximal inhibitory concentration (IC50) lay in the range of 0.3 to 1 µM.
On to `CC(C)c1cc(OCC23CCOC(CNc4cccc5c(N)nccc45)(C2)C3)cc(=O)n1C` [Example 10949, 4-((1-(((1-aminoisoquinolin-5-yl)amino)methyl)-2-oxabicyclo[3.1.1]heptan-5-yl)methoxy)-6-isopropyl-1-methylpyridin-2(1H)-one], for which the IC50 was 0.3 to 1 µM.

The values are drawn from patent publication US20240327412A1, “FACTOR XIIA INHIBITORS” (KALVISTA PHARMACEUTICALS LIMITED, priority 2021, published 2024).
